Literature values in patent publication US20070031352A1, “Powdery preparations containing diethylamino-hydroxybenzoyl-hexyl-benzoate” (BASF Aktiengesellschaft, priority 2003, published 2007).

Details: at 354 nm

CCCCCCOC(=O)c1ccccc1C(=O)c1ccc(N(CC)CC)cc1O [Uvinul® A Plus, diethylamino hydroxybenzoyl hexyl benzoate]
absorbance coefficient: 940
